Consider two compounds from ChEMBL document CHEMBL1152558, “A critical electrostatic interaction mediates inhibitor recognition by human asparagine synthetase” (Bioorg Med Chem, 2009).

Active and inactive are the calls of the source. The calls are words filed in the database; no cut-off is given here.

The target in test [1] is T1, Asparagine synthetase [glutamine-hydrolyzing] (Homo sapiens, UniProt P08243).
T1 sequence (P08243 whole entry): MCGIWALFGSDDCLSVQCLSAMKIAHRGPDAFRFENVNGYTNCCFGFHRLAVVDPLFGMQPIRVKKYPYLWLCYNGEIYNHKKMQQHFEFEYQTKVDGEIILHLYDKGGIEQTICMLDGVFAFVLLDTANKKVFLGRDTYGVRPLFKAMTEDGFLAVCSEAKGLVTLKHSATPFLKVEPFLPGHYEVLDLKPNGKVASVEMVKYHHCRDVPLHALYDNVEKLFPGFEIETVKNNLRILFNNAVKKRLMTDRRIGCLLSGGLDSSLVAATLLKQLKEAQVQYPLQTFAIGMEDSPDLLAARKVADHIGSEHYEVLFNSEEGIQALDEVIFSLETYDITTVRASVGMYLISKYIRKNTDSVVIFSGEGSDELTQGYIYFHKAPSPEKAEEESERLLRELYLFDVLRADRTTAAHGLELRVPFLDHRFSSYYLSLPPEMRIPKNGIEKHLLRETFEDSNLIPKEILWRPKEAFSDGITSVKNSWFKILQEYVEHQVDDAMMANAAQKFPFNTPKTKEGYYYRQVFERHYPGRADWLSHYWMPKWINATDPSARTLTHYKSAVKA
The experiment in a line: Inhibition of human recombinant ASNS expressed in Sf9 insect cells assessed as overall inhibition constant.

Test [2] has as its target T1, Asparagine synthetase [glutamine-hydrolyzing]. The experiment in a line: Inhibition of human recombinant ASNS expressed in Sf9 insect cells.
The target of test [3] is T2, Asparagine synthetase [glutamine-hydrolyzing] (Homo sapiens) (UniProt P08243).
T2 sequence (whole entry): T1 sequence (P08243 whole entry)
Briefly: Inhibition of human recombinant ASNS expressed in Sf9 insect cells assessed as inorganic phosphate production in ammonia-dependent asparagine synthesis using continuous assay.

Test [4] addresses T2, Asparagine synthetase [glutamine-hydrolyzing] (Homo sapiens). The experiment in a line: Inhibition of human recombinant ASNS expressed in Sf9 insect cells assessed as inorganic phosphate production in glutamine-dependent asparagine synthesis using continuous assay.

A word on the Ki: it is the equilibrium dissociation constant of an inhibitor or competing ligand from its target. Consider `C[S+]([O-])(C[C@H](N)C(=O)O)=NP(=O)(O)OC[C@H]1O[C@@H](n2cnc3c(N)ncnc32)[C@H](O)[C@@H]1O` (some centres undefined), for which the Ki was found to be 10 µM in test [1] and 20 µM in test [2].

As for `C[S+]([O-])(CC(N)C(=O)O)=NS(=O)(=O)NC[C@H]1O[C@@H](n2cnc3c(N)ncnc32)[C@H](O)[C@@H]1O` (mixture of isomers), the result in test [3] and in test [4] was inactive.
